Assay results published in ChEMBL document CHEMBL5724914, “Linking interpersonal differences in gut microbiota composition and drug biotransformation activity” (2024).

Columns and labels:
[1] = The drug is tested on Z-027 corresponding to metagenome with ENA study accession number: PRJEB37062 and ENA sample accession number: ERS12561826 for biotransformation under anaerobic condition. The drug concentrations were measured over 9 timepoints collected between 0 and 24 hours of incubation by liquid-chromatography-coupled mass spectrometry (LC–MS); settings: 2 µM
[2] = The drug is tested on Z-021 corresponding to metagenome with ENA study accession number: PRJEB37062 and ENA sample accession number: ERS12561820 for biotransformation under anaerobic condition. The drug concentrations were measured over 9 timepoints collected between 0 and 24 hours of incubation by liquid-chromatography-coupled mass spectrometry (LC–MS); settings: 2 µM
[3] = The drug is tested on Z-016 corresponding to mouse gut metagenome with ENA study accession number: PRJEB37062 and ENA sample accession number: ERS12561815 for biotransformation under anaerobic condition. The drug concentrations were measured over 9 timepoints collected between 0 and 24 hours of incubation by liquid-chromatography-coupled mass spectrometry (LC–MS); settings: 2 µM
[4] = The drug is tested on Z-005 corresponding to metagenome with ENA study accession number: PRJEB37062 and ENA sample accession number: ERS12561805 for biotransformation under anaerobic condition. The drug concentrations were measured over 9 timepoints collected between 0 and 24 hours of incubation by liquid-chromatography-coupled mass spectrometry (LC–MS); settings: 2 µM
[5] = The drug is tested on Z-004 corresponding to metagenome with ENA study accession number: PRJEB37062 and ENA sample accession number: ERS12561804 for biotransformation under anaerobic condition. The drug concentrations were measured over 9 timepoints collected between 0 and 24 hours of incubation by liquid-chromatography-coupled mass spectrometry (LC–MS); settings: 2 µM
[6] = The drug is tested on WLS-350 corresponding to human gut metagenome with ENA study accession number: PRJEB37062 and ENA sample accession number: ERS12561789 for biotransformation under anaerobic condition. The drug concentrations were measured over 9 timepoints collected between 0 and 24 hours of incubation by liquid-chromatography-coupled mass spectrometry (LC–MS); settings: 2 µM
[7] = The drug is tested on WLS-082 corresponding to human gut metagenome with ENA study accession number: PRJEB37062 and ENA sample accession number: ERS12561751 for biotransformation under anaerobic condition. The drug concentrations were measured over 9 timepoints collected between 0 and 24 hours of incubation by liquid-chromatography-coupled mass spectrometry (LC–MS); settings: 2 µM
[8] = The drug is tested on WLS-027 corresponding to human gut metagenome with ENA study accession number: PRJEB37062 and ENA sample accession number: ERS12561744 for biotransformation under anaerobic condition. The drug concentrations were measured over 9 timepoints collected between 0 and 24 hours of incubation by liquid-chromatography-coupled mass spectrometry (LC–MS); settings: 2 µM
[9] = The drug is tested on WLS-007 corresponding to human gut metagenome with ENA study accession number: PRJEB37062 and ENA sample accession number: ERS12561742 for biotransformation under anaerobic condition. The drug concentrations were measured over 9 timepoints collected between 0 and 24 hours of incubation by liquid-chromatography-coupled mass spectrometry (LC–MS); settings: 2 µM
[10] = human gut metagenome, 24 h, 2 µM
[11] = human gut metagenome, 24 h, 2 µM; remark: listed apart in the source
[12] = human gut metagenome, 24 h, 2 µM; remark: listed apart in the source
[13] = human gut metagenome, 24 h, 2 µM; remark: listed apart in the source
[14] = human gut metagenome, 24 h, 2 µM; remark: listed apart in the source
[15] = human gut metagenome, 24 h, 2 µM; remark: listed apart in the source
[16] = human gut metagenome, 24 h, 2 µM; remark: listed apart in the source
[17] = human gut metagenome, 24 h, 2 µM; remark: listed apart in the source
[18] = human gut metagenome, 24 h, 2 µM; remark: listed apart in the source
[19] = human gut metagenome, 24 h, 2 µM; remark: listed apart in the source
[20] = human gut metagenome, 24 h, 2 µM; remark: listed apart in the source
Also: call rule not given here.

| Bacterial Biotransformation [1] | Bacterial Biotransformation [2] | Bacterial Biotransformation [3] | Bacterial Biotransformation [4] | Bacterial Biotransformation [5] | Bacterial Biotransformation [6] | Bacterial Biotransformation [7] | Bacterial Biotransformation [8] | Bacterial Biotransformation [9] | Bacterial Biotransformation [10] | Bacterial Biotransformation [11] | Bacterial Biotransformation [12] | Bacterial Biotransformation [13] | Bacterial Biotransformation [14] | Bacterial Biotransformation [15] | Bacterial Biotransformation [16] | Bacterial Biotransformation [17] | Bacterial Biotransformation [18] | Bacterial Biotransformation [19] | Bacterial Biotransformation [20] | SMILES |
| --- | --- | --- | --- | --- | --- | --- | --- | --- | --- | --- | --- | --- | --- | --- | --- | --- | --- | --- | --- | --- |
| Compound NOT metabolized | Compound NOT metabolized | Compound NOT metabolized | Compound NOT metabolized | Compound NOT metabolized | Compound NOT metabolized | Compound NOT metabolized | Compound NOT metabolized | Compound NOT metabolized | Compound NOT metabolized | Compound NOT metabolized | Compound NOT metabolized | Compound NOT metabolized | Compound NOT metabolized | Compound NOT metabolized | Compound NOT metabolized | Compound NOT metabolized | Compound NOT metabolized | Compound NOT metabolized | Compound NOT metabolized | CC[C@@]1(O)C(=O)OCc2c1cc1n(c2=O)Cc2cc3c(CN(C)C)c(O)ccc3nc2-1 [TOPOTECAN] |
| Compound NOT metabolized | Compound NOT metabolized | Compound NOT metabolized | Compound NOT metabolized | Compound NOT metabolized | Compound NOT metabolized | Compound NOT metabolized | Compound NOT metabolized | Compound NOT metabolized | Compound NOT metabolized | Compound NOT metabolized | Compound NOT metabolized | Compound NOT metabolized | Compound NOT metabolized | Compound NOT metabolized | Compound NOT metabolized | Compound NOT metabolized | Compound NOT metabolized | Compound NOT metabolized | Compound NOT metabolized | COc1cc(C(=O)NCc2ccc(OCCN(C)C)cc2)cc(OC)c1OC [TRIMETHOBENZAMIDE] |
| Compound NOT metabolized | Compound NOT metabolized | Compound metabolized | Compound NOT metabolized | Compound NOT metabolized | Compound metabolized | Compound metabolized | Compound metabolized | Compound NOT metabolized | Compound NOT metabolized | Compound metabolized | Compound metabolized | Compound metabolized | Compound metabolized | Compound NOT metabolized | Compound metabolized | Compound NOT metabolized | Compound NOT metabolized | Compound metabolized | Compound metabolized | CCOC(=O)C1=C[C@]2(CC)CCCN3CCc4c(n1c1ccccc41)[C@@H]32 [VINPOCETINE] |

The remaining lines, values behind:

| SMILES | Bacterial Biotransformation [1] | Bacterial Biotransformation [2] | Bacterial Biotransformation [3] | Bacterial Biotransformation [4] | Bacterial Biotransformation [5] | Bacterial Biotransformation [6] | Bacterial Biotransformation [7] | Bacterial Biotransformation [8] | Bacterial Biotransformation [9] | Bacterial Biotransformation [10] | Bacterial Biotransformation [11] | Bacterial Biotransformation [12] | Bacterial Biotransformation [13] | Bacterial Biotransformation [14] | Bacterial Biotransformation [15] | Bacterial Biotransformation [16] | Bacterial Biotransformation [17] | Bacterial Biotransformation [18] | Bacterial Biotransformation [19] | Bacterial Biotransformation [20] |
| --- | --- | --- | --- | --- | --- | --- | --- | --- | --- | --- | --- | --- | --- | --- | --- | --- | --- | --- | --- | --- |
| CCN(CC)CCNC(=O)c1cc(S(C)(=O)=O)ccc1OC [TIAPRIDE] | Compound NOT metabolized | Compound NOT metabolized | Compound NOT metabolized | Compound NOT metabolized | Compound NOT metabolized | Compound NOT metabolized | Compound NOT metabolized | Compound NOT metabolized | Compound NOT metabolized | Compound NOT metabolized | Compound NOT metabolized | Compound NOT metabolized | Compound NOT metabolized | Compound metabolized | Compound NOT metabolized | Compound metabolized | Compound NOT metabolized | Compound NOT metabolized | Compound metabolized | Compound NOT metabolized |
| CC(C)(C)NC[C@H](O)COc1nsnc1N1CCOCC1.O=C(O)/C=C\C(=O)O [TIMOLOL MALEATE] | Compound NOT metabolized | Compound NOT metabolized | Compound NOT metabolized | Compound NOT metabolized | Compound NOT metabolized | Compound NOT metabolized | Compound NOT metabolized | Compound NOT metabolized | Compound NOT metabolized | Compound NOT metabolized | Compound NOT metabolized | Compound NOT metabolized | Compound NOT metabolized | Compound NOT metabolized | Compound NOT metabolized | Compound NOT metabolized | Compound NOT metabolized | Compound NOT metabolized | Compound NOT metabolized | Compound NOT metabolized |
| COc1ccc(C(CN(C)C)C2(O)CCCCC2)cc1 (stereo not given) [VENLAFAXINE] | Compound NOT metabolized | Compound NOT metabolized | Compound NOT metabolized | Compound NOT metabolized | Compound NOT metabolized | Compound NOT metabolized | Compound NOT metabolized | Compound NOT metabolized | Compound NOT metabolized | Compound NOT metabolized | Compound NOT metabolized | Compound NOT metabolized | Compound NOT metabolized | Compound NOT metabolized | Compound NOT metabolized | Compound metabolized | Compound NOT metabolized | Compound NOT metabolized | Compound metabolized | Compound metabolized |
